BindingDB's records for doi:10.1016/S0893-133X(01)00285-8 (Novartis Pharma, 2001)

Legend:
[1] = biological target: Muscarinic acetylcholine receptor M2 (Homo sapiens, UniProt P08172)
[2] = biological target: Muscarinic acetylcholine receptor M1 (Homo sapiens, UniProt P11229)
[3] = biological target: Alpha-2A adrenergic receptor (Homo sapiens, UniProt P08913)
Adenosine receptor A2a = Adenosine receptor A2a (Homo sapiens, UniProt P29274)
Adenosine receptor A1 = Adenosine receptor A1 (Homo sapiens, UniProt P30542)
[4] = biological target: 5-hydroxytryptamine receptor 3A (Homo sapiens, UniProt P46098)
Adenosine receptor A3 = Adenosine receptor A3 (Homo sapiens, UniProt P0DMS8)
[5] = biological target: Alpha-2C adrenergic receptor (Homo sapiens, UniProt P18825)
[6] = biological target: 5-hydroxytryptamine receptor 6 (Homo sapiens, UniProt P50406)
[7] = biological target: Alpha-2B adrenergic receptor (Homo sapiens, UniProt P18089)
[8] = biological target: Beta-1 adrenergic receptor (Homo sapiens, UniProt P08588)
[9] = biological target: Delta-type opioid receptor (Homo sapiens, UniProt P41143)
Substance-P receptor = Substance-P receptor (Homo sapiens, UniProt P25103)
Neuromedin-K receptor = Neuromedin-K receptor (Homo sapiens, UniProt P29371)
[10] = biological target: Gastrin/cholecystokinin type B receptor (Homo sapiens, UniProt P32239)
[11] = biological target: Muscarinic acetylcholine receptor M5 (Homo sapiens, UniProt P08912)
[12] = biological target: Muscarinic acetylcholine receptor M4 (Homo sapiens, UniProt P08173)
[13] = biological target: 5-hydroxytryptamine receptor 7 (Homo sapiens, UniProt P34969)
[14] = biological target: Sodium-dependent noradrenaline transporter (Homo sapiens, UniProt P23975)
[15] = biological target: Kappa-type opioid receptor (Homo sapiens, UniProt P41145)
[16] = biological target: Sodium-dependent dopamine transporter (Homo sapiens, UniProt Q01959)
Cannabinoid receptor 1 = Cannabinoid receptor 1 (Homo sapiens, UniProt P21554)
[17] = biological target: Corticotropin-releasing factor receptor 2 (Homo sapiens) (UniProt Q13324)
Substance-K receptor = Substance-K receptor (Homo sapiens, UniProt P21452)
[18] = biological target: Beta-2 adrenergic receptor (Homo sapiens, UniProt P07550)
Mu-type opioid receptor = Mu-type opioid receptor (Homo sapiens, UniProt P35372)
[19] = biological target: Muscarinic acetylcholine receptor M3 (Homo sapiens, UniProt P20309)

Chain of Adenosine receptor A1 (P30542 whole entry): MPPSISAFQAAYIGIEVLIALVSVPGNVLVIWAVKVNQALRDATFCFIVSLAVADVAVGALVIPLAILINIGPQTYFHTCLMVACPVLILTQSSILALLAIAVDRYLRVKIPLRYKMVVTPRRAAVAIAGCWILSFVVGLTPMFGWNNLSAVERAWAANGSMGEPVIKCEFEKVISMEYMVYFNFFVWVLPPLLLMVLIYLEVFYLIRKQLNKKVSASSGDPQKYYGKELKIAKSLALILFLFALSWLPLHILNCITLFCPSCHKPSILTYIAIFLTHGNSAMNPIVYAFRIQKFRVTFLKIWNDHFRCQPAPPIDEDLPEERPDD
Chain of Muscarinic acetylcholine receptor M1 (P11229 whole entry): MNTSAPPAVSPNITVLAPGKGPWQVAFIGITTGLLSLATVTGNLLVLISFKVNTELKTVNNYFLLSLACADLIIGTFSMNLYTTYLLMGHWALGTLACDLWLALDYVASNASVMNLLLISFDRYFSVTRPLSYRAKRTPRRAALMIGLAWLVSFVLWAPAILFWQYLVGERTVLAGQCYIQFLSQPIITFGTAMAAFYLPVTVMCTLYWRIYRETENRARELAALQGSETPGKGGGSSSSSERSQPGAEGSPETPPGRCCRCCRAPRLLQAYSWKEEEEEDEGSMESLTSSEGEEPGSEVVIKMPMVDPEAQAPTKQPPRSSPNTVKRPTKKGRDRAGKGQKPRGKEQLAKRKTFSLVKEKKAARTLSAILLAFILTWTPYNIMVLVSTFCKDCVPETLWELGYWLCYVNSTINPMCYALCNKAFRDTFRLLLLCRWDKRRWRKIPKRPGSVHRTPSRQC
Chain of Alpha-2C adrenergic receptor (P18825 whole entry): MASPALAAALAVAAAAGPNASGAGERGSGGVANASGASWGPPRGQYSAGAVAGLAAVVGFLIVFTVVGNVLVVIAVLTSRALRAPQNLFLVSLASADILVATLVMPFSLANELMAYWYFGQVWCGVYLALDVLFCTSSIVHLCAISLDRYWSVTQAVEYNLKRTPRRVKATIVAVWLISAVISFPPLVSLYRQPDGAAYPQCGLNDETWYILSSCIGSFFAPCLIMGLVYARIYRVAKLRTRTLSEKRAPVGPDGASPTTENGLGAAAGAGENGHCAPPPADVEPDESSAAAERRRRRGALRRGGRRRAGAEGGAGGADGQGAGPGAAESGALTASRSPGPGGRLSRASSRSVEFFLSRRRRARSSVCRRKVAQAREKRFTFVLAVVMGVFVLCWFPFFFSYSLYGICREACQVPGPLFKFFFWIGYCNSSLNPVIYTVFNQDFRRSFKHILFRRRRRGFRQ
Chain of Beta-2 adrenergic receptor (P07550 whole entry): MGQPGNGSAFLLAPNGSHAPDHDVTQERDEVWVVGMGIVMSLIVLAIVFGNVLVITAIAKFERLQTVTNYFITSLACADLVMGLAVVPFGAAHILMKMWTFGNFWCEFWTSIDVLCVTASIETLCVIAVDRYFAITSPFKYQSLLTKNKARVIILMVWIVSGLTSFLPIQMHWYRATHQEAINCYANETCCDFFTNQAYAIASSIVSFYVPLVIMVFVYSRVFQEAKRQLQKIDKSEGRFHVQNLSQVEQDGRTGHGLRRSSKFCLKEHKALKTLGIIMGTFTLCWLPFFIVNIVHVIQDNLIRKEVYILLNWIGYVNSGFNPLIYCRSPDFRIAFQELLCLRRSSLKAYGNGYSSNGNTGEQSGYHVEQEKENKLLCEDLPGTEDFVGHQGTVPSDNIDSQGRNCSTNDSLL
Chain of Muscarinic acetylcholine receptor M5 (P08912 whole entry): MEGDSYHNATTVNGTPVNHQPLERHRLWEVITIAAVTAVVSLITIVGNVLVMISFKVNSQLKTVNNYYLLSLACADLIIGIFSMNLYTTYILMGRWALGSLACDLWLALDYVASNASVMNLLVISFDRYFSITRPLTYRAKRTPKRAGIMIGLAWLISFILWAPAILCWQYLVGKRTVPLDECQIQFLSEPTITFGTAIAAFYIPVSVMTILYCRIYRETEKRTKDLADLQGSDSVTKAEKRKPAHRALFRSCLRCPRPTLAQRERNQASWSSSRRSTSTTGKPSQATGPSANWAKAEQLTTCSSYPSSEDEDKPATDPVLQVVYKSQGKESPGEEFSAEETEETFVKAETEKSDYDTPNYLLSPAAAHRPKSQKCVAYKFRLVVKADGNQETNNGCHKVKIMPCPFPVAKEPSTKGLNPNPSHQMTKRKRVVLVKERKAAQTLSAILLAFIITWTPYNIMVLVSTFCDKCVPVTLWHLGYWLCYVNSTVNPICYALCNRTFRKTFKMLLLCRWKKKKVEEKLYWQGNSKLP
Chain of Mu-type opioid receptor (P35372 whole entry): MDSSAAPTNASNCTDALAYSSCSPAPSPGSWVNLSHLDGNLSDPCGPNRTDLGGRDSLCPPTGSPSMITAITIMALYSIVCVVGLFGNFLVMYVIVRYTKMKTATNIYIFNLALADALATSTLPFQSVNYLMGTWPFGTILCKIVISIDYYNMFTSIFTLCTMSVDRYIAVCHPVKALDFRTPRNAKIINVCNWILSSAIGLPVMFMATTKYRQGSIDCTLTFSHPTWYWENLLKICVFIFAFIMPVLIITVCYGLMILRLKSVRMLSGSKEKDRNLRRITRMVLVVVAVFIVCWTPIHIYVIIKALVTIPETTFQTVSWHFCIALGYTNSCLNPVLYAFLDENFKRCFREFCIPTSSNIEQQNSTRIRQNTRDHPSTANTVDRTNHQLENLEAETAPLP
Chain of Beta-1 adrenergic receptor (P08588 whole entry): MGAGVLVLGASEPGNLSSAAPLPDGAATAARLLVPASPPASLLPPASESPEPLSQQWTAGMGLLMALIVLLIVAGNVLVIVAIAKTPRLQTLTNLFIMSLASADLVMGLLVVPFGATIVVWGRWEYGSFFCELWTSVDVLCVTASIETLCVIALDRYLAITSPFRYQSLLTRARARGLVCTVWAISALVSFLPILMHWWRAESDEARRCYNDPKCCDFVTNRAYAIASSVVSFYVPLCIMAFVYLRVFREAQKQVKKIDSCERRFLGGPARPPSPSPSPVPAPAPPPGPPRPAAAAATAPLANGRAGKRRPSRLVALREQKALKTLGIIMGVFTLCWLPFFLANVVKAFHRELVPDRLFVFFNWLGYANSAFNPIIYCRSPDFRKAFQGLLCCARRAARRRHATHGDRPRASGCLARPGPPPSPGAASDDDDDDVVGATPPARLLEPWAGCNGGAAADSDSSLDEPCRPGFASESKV
Chain of Sodium-dependent noradrenaline transporter (P23975 whole entry): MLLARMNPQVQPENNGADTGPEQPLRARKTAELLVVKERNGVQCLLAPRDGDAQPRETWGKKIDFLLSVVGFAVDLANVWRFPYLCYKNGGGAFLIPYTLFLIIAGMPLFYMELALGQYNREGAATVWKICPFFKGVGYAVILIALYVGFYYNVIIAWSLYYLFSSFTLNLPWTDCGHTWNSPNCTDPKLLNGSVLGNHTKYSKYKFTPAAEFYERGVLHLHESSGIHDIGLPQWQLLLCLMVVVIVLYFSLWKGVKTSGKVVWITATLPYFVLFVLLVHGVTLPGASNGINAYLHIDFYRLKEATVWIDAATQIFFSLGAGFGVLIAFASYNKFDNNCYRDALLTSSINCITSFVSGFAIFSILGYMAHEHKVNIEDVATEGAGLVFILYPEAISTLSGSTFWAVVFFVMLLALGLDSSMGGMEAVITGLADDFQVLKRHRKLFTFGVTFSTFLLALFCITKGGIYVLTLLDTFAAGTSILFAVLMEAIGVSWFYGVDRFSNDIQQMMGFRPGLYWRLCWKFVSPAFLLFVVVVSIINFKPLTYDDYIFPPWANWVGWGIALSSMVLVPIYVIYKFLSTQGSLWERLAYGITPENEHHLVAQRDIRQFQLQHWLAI
Chain of Alpha-2B adrenergic receptor (P18089 whole entry): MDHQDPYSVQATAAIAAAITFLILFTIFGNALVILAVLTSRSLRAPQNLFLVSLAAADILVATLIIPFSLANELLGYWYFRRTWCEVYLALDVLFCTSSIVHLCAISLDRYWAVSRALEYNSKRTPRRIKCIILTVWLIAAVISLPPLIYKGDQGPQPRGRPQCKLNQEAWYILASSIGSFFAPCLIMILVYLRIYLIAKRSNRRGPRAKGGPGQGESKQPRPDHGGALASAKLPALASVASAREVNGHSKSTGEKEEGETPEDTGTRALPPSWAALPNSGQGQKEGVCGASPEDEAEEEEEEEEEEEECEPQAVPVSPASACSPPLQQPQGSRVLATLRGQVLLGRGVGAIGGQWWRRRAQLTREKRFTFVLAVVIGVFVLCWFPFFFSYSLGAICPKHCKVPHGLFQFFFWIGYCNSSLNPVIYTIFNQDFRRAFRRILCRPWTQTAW
Chain of Substance-K receptor (P21452 whole entry): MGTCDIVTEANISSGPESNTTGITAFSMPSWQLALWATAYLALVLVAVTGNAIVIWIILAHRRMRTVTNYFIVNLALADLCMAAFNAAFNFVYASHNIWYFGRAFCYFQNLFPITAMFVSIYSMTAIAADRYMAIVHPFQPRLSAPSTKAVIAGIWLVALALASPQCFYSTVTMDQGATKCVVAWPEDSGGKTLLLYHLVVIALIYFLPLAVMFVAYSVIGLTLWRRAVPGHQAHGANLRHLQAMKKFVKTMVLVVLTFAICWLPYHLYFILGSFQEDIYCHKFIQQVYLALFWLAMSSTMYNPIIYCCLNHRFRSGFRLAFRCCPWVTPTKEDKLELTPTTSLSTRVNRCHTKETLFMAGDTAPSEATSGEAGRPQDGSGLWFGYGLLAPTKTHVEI
Chain of Adenosine receptor A2a (P29274 whole entry): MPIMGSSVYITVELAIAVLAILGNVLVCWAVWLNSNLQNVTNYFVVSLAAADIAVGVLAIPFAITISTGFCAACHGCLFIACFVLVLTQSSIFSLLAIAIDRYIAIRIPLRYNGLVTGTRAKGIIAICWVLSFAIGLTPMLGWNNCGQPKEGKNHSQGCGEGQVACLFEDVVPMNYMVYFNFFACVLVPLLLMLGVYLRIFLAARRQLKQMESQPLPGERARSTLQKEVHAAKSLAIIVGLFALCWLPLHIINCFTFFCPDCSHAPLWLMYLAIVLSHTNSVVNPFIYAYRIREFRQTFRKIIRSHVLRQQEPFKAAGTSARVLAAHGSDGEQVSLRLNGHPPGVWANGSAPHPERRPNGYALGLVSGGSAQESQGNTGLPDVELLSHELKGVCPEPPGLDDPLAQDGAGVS

**Q.** Which results are given for `COc1cc(C(C)=O)ccc1OCCCN1CCC(c2noc3cc(F)ccc23)CC1`?
**A.** Ki [1]: 3.31 µM; Ki [2]: 4.9 µM; Ki [3]: 0.162 µM; Ki (Adenosine receptor A2a): > 10 µM; Ki (Adenosine receptor A1): > 10 µM; Ki [4]: > 10 µM; Ki (Adenosine receptor A3): > 10 µM; Ki [5]: 0.0162 µM; Ki [6]: 0.0631 µM; Ki [7]: 0.162 µM; Ki [8]: > 10 µM; Ki [9]: > 10 µM; Ki (Substance-P receptor): > 10 µM; Ki (Neuromedin-K receptor): > 10 µM; Ki [10]: 9.33 µM; Ki [11]: > 10 µM; Ki [12]: 8.32 µM; Ki [13]: 0.112 µM; Ki [14]: 1.48 µM; Ki [15]: > 10 µM; Ki [16]: 2.95 µM; Ki (Cannabinoid receptor 1): > 10 µM; Ki [17]: > 10 µM; Ki (Substance-K receptor): > 10 µM; Ki [18]: > 10 µM; Ki (Mu-type opioid receptor): > 10 µM; Ki [19]: > 10 µM
